# Laboratory results from patent US10980725B2, “Cosmetic compositions and method of treating the skin” (Johnson & Johnson Consumer Inc., priority 2017, dated 2021).
# Read-outs that look alike come from different tables or passages of the source.
# What was measured:
# [1] = target: T1, Human Retinoic Acid Receptor Gamma (Homo sapiens, UniProt P13631); assay: RARγ transactivation cellular assay (luciferase reporter, Indigo Biosciences #IB02001); assay type: cell-based; settings: for RARγ transactivation (in words): 0.1 μM, 1 μM and 10 μM; for RARγ receptor transactivation values (ratio: RLU of tested material/RLU of control): 24 h incubation
# T1 sequence (P13631 1-454): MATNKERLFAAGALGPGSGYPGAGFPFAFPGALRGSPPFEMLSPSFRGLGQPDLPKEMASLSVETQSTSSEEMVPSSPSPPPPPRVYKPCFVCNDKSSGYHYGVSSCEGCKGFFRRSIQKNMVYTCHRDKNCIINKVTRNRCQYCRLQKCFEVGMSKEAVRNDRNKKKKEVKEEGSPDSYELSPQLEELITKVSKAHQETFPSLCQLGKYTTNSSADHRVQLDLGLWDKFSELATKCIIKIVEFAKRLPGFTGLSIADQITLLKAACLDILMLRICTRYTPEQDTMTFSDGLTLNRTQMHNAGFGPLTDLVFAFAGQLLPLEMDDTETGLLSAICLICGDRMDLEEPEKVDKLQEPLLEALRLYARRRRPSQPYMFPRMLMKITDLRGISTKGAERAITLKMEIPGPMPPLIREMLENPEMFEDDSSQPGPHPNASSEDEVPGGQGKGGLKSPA
# Description: Test Method 1 RARγ Transactivation Cellular Assay
# This assay system uses non-human cells engineered to provide constitutive, high-level expression of the Human Retinoic Acid Receptor Gamma, a ligand-dependent transcription factor. Cells include the luciferase reporter gene functionally linked to a RARγ-responsive promoter. Thus, quantifying changes in luciferase expression in the treated reporter cells provides a sensitive measure of the changes in RARγ activity.
# Engineered cells are seeded in 96-well plates and treated with the assessed compounds at 3 concentrations: 0.1 μM, 1 μM and 10 μM. After 24 h incubation, treatment media are discarded and Luciferase detection reagent is added. Light emission from each assay well is quantified using a plate-reading luminometer.
# RARγ receptors = target: T2, RARγ receptors (Homo sapiens, UniProt P13631); assay: GenBLAzer RAR gamma cell-based assay, agonist mode (AG) and positive allosteric modulator mode (PAM); settings: unit from horizontal axis of FIG. 1
# T2 sequence (P13631 185-419 limits assumed): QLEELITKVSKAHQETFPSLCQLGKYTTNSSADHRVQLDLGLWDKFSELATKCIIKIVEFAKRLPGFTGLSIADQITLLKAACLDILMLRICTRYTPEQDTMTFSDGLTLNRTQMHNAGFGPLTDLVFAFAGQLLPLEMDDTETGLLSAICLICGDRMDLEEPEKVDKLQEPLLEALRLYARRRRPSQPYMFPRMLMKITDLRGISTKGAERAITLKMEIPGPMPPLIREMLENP
# Description: Test Method 2 RARγ Receptors in Both Agonist Mode (AG) and Positive Allosteric Modulator Mode (PAM)
# Dose response activity on RARγ receptors in both agonist mode (AG) and Positive allosteric modulator mode (PAM) was tested using Invitrogen's GenBLAzer® RAR gamma cell-based assay according to the manufacturer's instructions.
# [2] = tested on: CRABP2 (cellular retinoic acid binding protein-II) gene expression; assay: CRABP2 gene expression in human skin explants (qPCR); assay type: cell-based; settings: 48 h; for CRABP2 mRNA expression in skin explant: topical; for CRABP2 gene expression in human skin explants (in words): applied topically, 10 μM and 100 μM
# Description: (§1) Test Method 3 CRABP2 (Cellular Retinoic Acid Binding Protein-II) and HBEGF (Heparin-Binding Epidermal Growth Factor-Like Growth Factor) Gene Expression in Human Explants
# (§2) Human skin explants were prepared as described by Bellemère et al. (Journal of Investigative Dermatology (2008) 128, 542-548), treated with 4 μl of compound (1) or (2) (Cpd (1) and Cpd (2) in the figure) at 2 concentrations: 10 μM and 100 μM and incubated at 37° C., 5% CO2 in 6-well plates containing 1.5 ml of medium during 48 h. After 48 h, the epidermis of each explant is detached from the dermis and (i) lysed for RNA extraction with Qiagen Rneasy kit, (ii) reverse transcripted using the thermocycler iCycler from Biorad and Applied Biosystems kit and (iii) analyzed for gene expression by performing a qPCR using the CFX96 Biorad Q-PCR system and Power Sybergreen PCR master mix from Applied Biosystems. All steps were performed according to the manufacturer's instructions. […] Compounds (1) and (2), used at doses of 10 μM and 100 μM, elicit retinol-like bioactivity, as shown by the induction of CRABP2 and HB-EGF gene expression.
# [3] = tested on: HBEGF (heparin-binding epidermal growth factor-like growth factor) gene expression; assay: HBEGF gene expression in human skin explants (qPCR); assay type: cell-based; settings: 48 h; for HB-EGF gene expression in skin explant: topical; for HBEGF gene expression in human skin explants (in words): applied topically, 10 μM and 100 μM
# Description: as §1, §2
# [4] = tested on: interleukin 8 (IL-8 mRNA); assay: Gene expression of inflammatory mediator interleukin 8 in skin explant; assay type: cell-based, human; settings: 48 h; for IL-8 mRNA expression in skin explant: topical; for IL-8 mRNA expression as compared to Neutrogena RWR (in words): skin explant
# Description: as §2
# Test Method 4 Gene Expression of Inflammatory Mediator Interleukin 8 (IL-8 mRNA)
# The skin explant used in Test Method 3 was used to measure the expression of the gen for IL-8 mRNA.
# As depicted in the Figure below, IL-8 mRNA expression is lower in explant treated with both compounds (1) and (2) as compared to Neutrogena RWR.
# [5] = agonist mode, read-out: average EC50, dose response activity on RARγ in agonist mode
# [6] = positive allosteric modulator mode, read-out: average EC50, dose response activity on RARγ in positive allosteric modulator mode
# [7] = 10^−4M in vehicle (PG70/EtOH30)
# [8] = 10^−5M in vehicle (PG70/EtOH30)
RARγ transactivation (in words) [1],RARγ receptor transactivation values (ratio: RLU of tested material/RLU of control) ([1]; concentration 0.1 μM),RARγ receptor transactivation values (ratio: RLU of tested material/RLU of control) ([1]; concentration 1 μM),RARγ receptor transactivation values (ratio: RLU of tested material/RLU of control) ([1]; concentration 10 μM),EC50 (RARγ receptors; [5]) [nM],EC50 (RARγ receptors; [6]) [nM],CRABP2 gene expression in human skin explants (in words) [2],HBEGF gene expression in human skin explants (in words) [3],"IL-8 mRNA expression in skin explant [4, 7] [% control]","IL-8 mRNA expression in skin explant [4, 8] [% control]",IL-8 mRNA expression as compared to Neutrogena RWR (in words) [4],Compound,"CRABP2 mRNA expression in skin explant [2, 7] [% control]","CRABP2 mRNA expression in skin explant [2, 8] [% control]","HB-EGF gene expression in skin explant [3, 7] [%]","HB-EGF gene expression in skin explant [3, 8] [%]"
showed RARγ transactivation,10.6988,8.4578,6.506,0.0831,0.0301,induced,induced,410,422,lower,"CC(/C=C/C=C(\C)c1ccc2c(c1)C(C)(C)C(C)(C)C2(C)C)=C\C(=O)O [Compound 1, (2E,4E,6E)-7-(1,1,2,2,3,3-hexamethyl-2,3-dihydro-1H-inden-5-yl)-3-methylocta-2,4,6-trienoic acid]",496,256,513,218
showed RARγ transactivation,5.5663,3.253,6.7229,7.1 ± 0.7,6.7 ± 2.7,induced,induced,690,334,lower,"C=C(c1ccc(C(=O)O)cc1)c1ccc2c(c1)C(C)(C)C(C)(C)C2(C)C [Compound 2, 4-(1-(1,1,2,2,3,3-hexamethyl-2,3-dihydro-1H-inden-5-yl)vinyl)benzoic acid]",340,191,358,173
